Measured values as given in ChEMBL document CHEMBL1201862, “PubChem BioAssay data set” (2004).
The source made the active and inactive calls.

What was measured:
[1] = molecular target: T1, Fatty acid synthase (Homo sapiens, UniProt P49327); assay: inhibition of human FAS-TE enzyme activity – biochemical, kinetic fluorescence intensity, dose response (AID 624326); format: functional;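 note: rate of fluorescence rise from hydrolysis of a fluorogenic O-methyl fluorescein ester substrate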
[2] = molecular target: T1, Fatty acid synthase; assay: inhibition of human FAS-TE enzyme activity – biochemical, endpoint fluorescence intensity, uHTS hits, dose response (AID 624327); format: functional;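 note: fluorescence from hydrolysis of an O-methyl fluorescein acyl ester substrate by the enzyme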
[3] = tested on: H9c2; assay: cells; format: functional, cell-based; conditions: Rattus norvegicus, H9c2, Myocardium;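 note: confirmatory concentration-response retest of ultra-high-throughput screening hits for modulation of myocardial damage; cell death induced by hydrogen peroxide oxidative stress; compound pretreatment for 60 min then peroxide exposure for 2 h; potency is for protecting the cells against peroxide damage rather than for killing them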
[4] = molecular target: Cytochrome P450 3A4 (Homo sapiens, UniProt P08684); conditions: Potency;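 note: confirmatory qHTS run detecting inhibitors and substrates of CYP3A4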
[5] = molecular target: T2, Protein RecA (Mycobacterium tuberculosis, UniProt P9WHJ3); assay: Fluorescence Cell-Free Homogeneous Dose Retest to Identify Inhibitors of RecA-Intein Splicing Activity. [Related pubchem assays (depositor defined):AID2097, AID2223, AID489010, AID492950]; format: functional
T2 sequence (P9WHJ3 whole entry): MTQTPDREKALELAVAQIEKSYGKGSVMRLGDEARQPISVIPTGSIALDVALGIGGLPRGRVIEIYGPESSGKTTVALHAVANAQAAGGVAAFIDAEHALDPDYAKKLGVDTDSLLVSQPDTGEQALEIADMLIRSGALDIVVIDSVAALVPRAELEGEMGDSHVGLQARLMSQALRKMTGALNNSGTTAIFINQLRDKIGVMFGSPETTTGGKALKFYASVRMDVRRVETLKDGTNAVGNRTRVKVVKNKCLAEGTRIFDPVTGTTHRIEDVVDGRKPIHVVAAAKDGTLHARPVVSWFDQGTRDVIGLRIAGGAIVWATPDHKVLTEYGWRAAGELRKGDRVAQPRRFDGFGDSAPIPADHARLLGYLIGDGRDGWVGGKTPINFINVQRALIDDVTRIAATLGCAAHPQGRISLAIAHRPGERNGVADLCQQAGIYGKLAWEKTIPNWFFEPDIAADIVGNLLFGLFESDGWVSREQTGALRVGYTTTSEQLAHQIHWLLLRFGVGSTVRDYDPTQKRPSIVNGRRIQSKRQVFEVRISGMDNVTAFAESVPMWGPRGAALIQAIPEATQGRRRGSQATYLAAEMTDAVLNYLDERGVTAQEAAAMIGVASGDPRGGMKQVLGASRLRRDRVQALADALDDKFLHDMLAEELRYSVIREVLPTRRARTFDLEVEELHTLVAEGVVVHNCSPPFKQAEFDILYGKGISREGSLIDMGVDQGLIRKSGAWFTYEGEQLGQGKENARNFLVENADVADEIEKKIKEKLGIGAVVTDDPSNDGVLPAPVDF

[6] = molecular target: T3, Replicative DNA helicase DnaB (Mycobacterium tuberculosis, UniProt P9WMR3); assay: DnaB intein splicing inhibitors, dose response, biochemical, cell-free fluorescence (AID 449749); format: functional
T3 sequence (P9WMR3 whole entry): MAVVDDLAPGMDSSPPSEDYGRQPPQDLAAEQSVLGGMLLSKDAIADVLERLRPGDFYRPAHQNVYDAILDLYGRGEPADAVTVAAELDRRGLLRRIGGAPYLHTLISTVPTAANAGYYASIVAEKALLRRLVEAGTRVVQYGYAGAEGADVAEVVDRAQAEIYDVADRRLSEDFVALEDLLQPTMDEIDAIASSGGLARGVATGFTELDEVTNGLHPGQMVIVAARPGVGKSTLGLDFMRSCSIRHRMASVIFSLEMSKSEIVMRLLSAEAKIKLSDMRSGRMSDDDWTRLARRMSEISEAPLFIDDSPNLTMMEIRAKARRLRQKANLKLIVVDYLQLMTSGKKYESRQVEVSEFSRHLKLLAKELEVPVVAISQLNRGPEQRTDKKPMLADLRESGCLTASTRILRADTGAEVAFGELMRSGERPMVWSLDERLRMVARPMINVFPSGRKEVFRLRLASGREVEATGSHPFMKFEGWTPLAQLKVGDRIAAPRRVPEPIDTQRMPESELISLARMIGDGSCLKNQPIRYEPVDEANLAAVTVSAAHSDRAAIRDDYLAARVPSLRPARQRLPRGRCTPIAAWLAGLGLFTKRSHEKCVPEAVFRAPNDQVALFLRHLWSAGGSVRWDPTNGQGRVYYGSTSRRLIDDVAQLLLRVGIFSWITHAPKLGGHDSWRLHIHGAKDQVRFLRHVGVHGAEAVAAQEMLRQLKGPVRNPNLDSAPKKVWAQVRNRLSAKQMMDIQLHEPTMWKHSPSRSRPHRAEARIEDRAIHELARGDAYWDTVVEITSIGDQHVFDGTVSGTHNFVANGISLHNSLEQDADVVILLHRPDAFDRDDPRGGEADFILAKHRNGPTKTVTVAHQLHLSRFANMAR

[7] = NIH-3T3 fibroblast cytotoxicity, dose response, cytotoxicity control, cell-based, fluorescence, Alamar Blue, secondary assay (AID 2327); format: functional;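 note: NIH-3T3 mouse fibroblasts cultured with fluconazole at 8 µg/mL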
[8] = fluconazole-exposed Candida albicans growth modulators – fluorescence, retest, confirmation (AID 2467); format: functional, cell-based
[9] = molecular target: T4, Rac GTPase-activating protein 1 (Homo sapiens, UniProt Q9H0H5); assay: blockers of MgcRacGAP-driven Rac1 GTP hydrolysis – biochemical, ADP Hunter fluorescence, primary and confirmatory, confirmation (AID 624330); format: functional
T4 sequence (Q9H0H5 whole entry): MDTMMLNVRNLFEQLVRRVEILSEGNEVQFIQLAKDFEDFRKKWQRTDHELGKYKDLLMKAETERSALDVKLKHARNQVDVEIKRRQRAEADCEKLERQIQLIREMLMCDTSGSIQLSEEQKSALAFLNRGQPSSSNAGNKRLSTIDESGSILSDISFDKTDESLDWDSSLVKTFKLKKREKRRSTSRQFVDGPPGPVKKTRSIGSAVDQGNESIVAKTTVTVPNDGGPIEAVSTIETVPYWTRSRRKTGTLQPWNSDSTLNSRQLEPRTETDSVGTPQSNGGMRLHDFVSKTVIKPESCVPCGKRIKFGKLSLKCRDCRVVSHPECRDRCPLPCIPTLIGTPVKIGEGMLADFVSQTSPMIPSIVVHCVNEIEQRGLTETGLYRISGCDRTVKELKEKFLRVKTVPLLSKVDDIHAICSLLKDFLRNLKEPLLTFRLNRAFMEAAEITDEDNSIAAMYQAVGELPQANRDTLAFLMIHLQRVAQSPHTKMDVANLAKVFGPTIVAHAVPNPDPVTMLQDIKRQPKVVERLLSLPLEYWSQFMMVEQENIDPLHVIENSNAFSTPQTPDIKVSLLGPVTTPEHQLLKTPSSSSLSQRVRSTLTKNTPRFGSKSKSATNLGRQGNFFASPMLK

[10] = Luminescence Cell-Based Dose Retest to Confirm Inhibitors of Cancer Stem Cells. [Related pubchem assays (depositor defined):AID2717, AID2721]; format: functional; conditions: Homo sapiens
[11] = viability of uninfected HEp-2 cells – cell-based, HTS, cytotoxicity control for RSV inhibitor project, dose response (AID 2410); format: functional; conditions: human respiratory syncytial virus

T1 sequence (P49327 whole entry): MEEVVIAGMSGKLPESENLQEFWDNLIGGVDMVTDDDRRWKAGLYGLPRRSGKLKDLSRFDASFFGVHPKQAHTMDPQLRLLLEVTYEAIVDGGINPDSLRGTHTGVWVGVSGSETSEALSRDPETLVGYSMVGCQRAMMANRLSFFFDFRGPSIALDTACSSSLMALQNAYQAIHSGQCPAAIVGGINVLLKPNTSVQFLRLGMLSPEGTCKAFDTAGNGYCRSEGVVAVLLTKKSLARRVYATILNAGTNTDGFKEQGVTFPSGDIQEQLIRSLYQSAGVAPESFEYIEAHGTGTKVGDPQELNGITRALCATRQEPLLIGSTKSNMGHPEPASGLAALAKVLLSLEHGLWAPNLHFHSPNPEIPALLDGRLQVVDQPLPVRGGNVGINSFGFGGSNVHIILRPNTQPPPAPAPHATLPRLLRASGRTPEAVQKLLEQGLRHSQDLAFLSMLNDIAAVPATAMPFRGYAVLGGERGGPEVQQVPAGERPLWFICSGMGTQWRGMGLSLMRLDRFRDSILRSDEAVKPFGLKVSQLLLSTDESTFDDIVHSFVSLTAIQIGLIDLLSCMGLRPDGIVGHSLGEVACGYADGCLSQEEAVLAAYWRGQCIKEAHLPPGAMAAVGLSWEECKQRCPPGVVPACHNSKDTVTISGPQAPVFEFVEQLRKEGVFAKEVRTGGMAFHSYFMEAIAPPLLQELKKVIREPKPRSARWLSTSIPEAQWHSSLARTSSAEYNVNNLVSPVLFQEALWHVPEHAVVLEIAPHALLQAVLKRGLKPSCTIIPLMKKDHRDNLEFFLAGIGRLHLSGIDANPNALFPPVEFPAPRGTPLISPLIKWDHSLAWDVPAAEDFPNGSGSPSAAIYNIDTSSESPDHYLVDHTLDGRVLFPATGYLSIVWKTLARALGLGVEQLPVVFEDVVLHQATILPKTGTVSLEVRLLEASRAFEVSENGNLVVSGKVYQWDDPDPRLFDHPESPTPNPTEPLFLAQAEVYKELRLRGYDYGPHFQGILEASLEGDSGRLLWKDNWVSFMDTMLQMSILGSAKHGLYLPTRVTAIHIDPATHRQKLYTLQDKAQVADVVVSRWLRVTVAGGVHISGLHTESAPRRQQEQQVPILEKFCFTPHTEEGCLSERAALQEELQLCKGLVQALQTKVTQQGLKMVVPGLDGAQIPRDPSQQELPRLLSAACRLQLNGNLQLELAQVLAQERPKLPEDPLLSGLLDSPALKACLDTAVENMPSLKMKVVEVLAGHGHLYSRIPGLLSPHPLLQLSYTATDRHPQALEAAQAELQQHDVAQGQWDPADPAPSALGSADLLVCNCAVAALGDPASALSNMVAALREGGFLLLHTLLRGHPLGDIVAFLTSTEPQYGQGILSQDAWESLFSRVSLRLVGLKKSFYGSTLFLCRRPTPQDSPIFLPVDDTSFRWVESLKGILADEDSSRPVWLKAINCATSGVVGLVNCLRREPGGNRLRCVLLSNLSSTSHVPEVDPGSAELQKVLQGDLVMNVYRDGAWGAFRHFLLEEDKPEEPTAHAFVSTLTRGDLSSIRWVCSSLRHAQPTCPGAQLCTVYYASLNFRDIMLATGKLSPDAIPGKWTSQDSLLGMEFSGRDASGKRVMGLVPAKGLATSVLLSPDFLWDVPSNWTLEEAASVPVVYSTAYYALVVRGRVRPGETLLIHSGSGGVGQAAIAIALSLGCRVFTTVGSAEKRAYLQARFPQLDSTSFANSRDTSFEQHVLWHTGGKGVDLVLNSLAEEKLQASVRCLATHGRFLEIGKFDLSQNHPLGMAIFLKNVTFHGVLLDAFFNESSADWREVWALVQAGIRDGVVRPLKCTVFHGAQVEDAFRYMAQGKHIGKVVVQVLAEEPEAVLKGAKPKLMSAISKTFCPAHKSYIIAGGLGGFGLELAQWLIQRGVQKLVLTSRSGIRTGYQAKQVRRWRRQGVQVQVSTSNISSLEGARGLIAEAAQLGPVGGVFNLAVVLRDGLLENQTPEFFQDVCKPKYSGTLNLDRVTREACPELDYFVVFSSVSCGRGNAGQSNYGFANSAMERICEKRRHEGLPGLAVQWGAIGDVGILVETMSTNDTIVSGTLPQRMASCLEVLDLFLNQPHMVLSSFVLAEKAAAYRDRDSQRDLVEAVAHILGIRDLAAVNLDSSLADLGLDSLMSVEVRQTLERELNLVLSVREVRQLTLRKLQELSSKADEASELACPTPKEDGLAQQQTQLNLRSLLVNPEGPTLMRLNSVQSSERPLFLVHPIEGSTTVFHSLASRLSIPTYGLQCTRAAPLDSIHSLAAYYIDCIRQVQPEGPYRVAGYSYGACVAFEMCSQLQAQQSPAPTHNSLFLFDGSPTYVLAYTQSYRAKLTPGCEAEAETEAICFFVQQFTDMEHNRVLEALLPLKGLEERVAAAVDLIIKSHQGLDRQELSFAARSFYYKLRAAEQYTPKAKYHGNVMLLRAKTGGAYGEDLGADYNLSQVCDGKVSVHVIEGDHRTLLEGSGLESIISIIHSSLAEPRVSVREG
Cytochrome P450 3A4, sequence (P08684 whole entry): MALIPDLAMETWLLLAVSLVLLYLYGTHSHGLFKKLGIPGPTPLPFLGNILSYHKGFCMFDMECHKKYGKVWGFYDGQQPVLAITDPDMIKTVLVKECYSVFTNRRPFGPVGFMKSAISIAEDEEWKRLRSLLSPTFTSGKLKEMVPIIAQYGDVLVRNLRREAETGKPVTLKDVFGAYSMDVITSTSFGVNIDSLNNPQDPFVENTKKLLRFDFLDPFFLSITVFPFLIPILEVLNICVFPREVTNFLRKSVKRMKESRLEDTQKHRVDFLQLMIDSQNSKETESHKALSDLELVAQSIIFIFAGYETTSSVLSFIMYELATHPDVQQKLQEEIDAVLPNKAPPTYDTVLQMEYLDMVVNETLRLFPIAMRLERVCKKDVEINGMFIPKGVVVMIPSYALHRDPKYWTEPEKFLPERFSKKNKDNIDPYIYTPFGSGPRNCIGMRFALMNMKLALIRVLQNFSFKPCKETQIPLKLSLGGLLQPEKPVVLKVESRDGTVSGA

## COc1ccc(Cn2c(C)nc3ccc([N+](=O)[O-])cc3c2=O)cc1
[1]
  IC50: 3.61 µM (active)
[2]
  IC50: 4.97 µM (active)

## O=C(CSc1nc(O)c2ccccc2n1)N1CCCCCC1
[3]
  IC50: 33 µM (inactive)

## CN(C(=O)COC(=O)c1cc([N+](=O)[O-])ccc1N1CCOCC1)C1CCCCC1
[1]
  IC50: 0.41 µM (active)
[2]
  IC50: 0.383 µM (active)

## CCN(CC)CCn1c2c(c(SCC(=O)Nc3cccc(C(C)=O)c3)nc1=O)CCCC2
[3]
  IC50: > 79 µM (inactive)

## CC(=O)O[C@@]1(C(C)=O)CCC2C3CC(C)C4=CC(=O)CC[C@@]4(C)C3CC[C@]21C (some centres not stated)
[4]
  AC50: 39.8 µM (inconclusive)

## CC(=O)OCC(=O)[C@@]1(O)CCC2C3CC(C)C4=CC(=O)C=CC4(C)C3C(O)CC21C (some centres not stated)
[4]
  AC50: 12.6 µM (inconclusive)

## COC(=O)c1ccc(CNC(=O)/C=C/c2cc([N+](=O)[O-])ccc2OC(F)F)cc1
[1]
  IC50: 4.91 µM (active)
[2]
  IC50: 3.27 µM (active)

## COc1ccc(C(=O)Nc2cccc(/C(C)=N/NC(=O)c3ccc([N+](=O)[O-])c(C)c3)c2)cc1OC
[3]
  IC50: > 79 µM (inactive)

## Cc1ccc(OCC(=O)NCc2nnc(O)c3ccccc23)cc1
[3]
  IC50: > 79 µM (inactive)

## CCN(CC)CCCn1c(-c2ccccc2)nc2c(NCc3ccccc3)nc(C)nc21
[4]
  AC50: 10 µM (inconclusive)

## c1ccc(Nc2ccc3ccccc3c2)cc1
[4]
  AC50: 25.1 µM (inconclusive)

## COc1cc(-n2c(=O)c3ccccc3n(Cc3cc(=O)n4ccccc4n3)c2=O)cc(OC)c1OC
[3]
  IC50: 18.7 µM (active)

## COc1ccc(/C=C/C(=O)c2ccccc2)cc1COc1ccc(F)cc1
[5]
  EC50: 37.2 µM (active)
[6]
  AC50: 17.1 µM (active)

## O=[N+]([O-])c1ccc(N2CCOCC2)c2ccncc12
[5]
  EC50: 12.2 µM (active)
[6]
  AC50: > 380 µM (inactive)

## O=S(=O)(Cc1ccccc1)N1CCc2ccccc21
[7]
  EC50: > 160 µM (inactive)
[8]
  EC50: 1.56 µM (active)

## CSCCC(NC(=O)c1ccc(Cl)c([N+](=O)[O-])c1)C(=O)N1CCN(C/C=C/c2ccccc2)CC1 (configuration not stated)
[1]
  IC50: 6.62 µM (active)
[2]
  IC50: 8.52 µM (active)

## COC(=O)[C@@H]1C[C@H]2CC[C@H](O)C[C@H]2N1Cc1ccc(-c2ccccc2)cc1
[4]
  AC50: 12.6 µM (inconclusive)

## CC(=O)Nc1cc(-c2ccc(C(=O)N3CCOCC3)cc2)cn2c(-c3ccc(C(C)=O)cc3)cnc12
[3]
  IC50: > 79 µM (inactive)

## Cc1csc(NC(=O)CCNC(=O)c2ccc([N+](=O)[O-])cc2)n1
[1]
  IC50: 7.66 µM (active)
[2]
  IC50: 6.85 µM (active)

## CCCc1n[nH]c2c1C(c1ccc(OC(=O)N3CCOCC3)cc1)C(C#N)=C(N)O2 (configuration not stated)
[5]
  EC50: 11.8 µM (active)
[6]
  AC50: 23.5 µM (active)

## COC(=O)[C@@H]1C[C@@]2(O)[C@H](O)[C@H](O)[C@H](O)C[C@H]2N1Cc1ccc(N2CCN(C)CC2)cc1
[4]
  AC50: 31.6 µM (inconclusive)

## Cn1ncc(Cl)c1C(=O)NNC(=O)Nc1cccc2ccccc12
[7]
  EC50: > 160 µM (inactive)
[8]
  EC50: > 38 µM (not active)

## C[n+]1c(-c2ccccc2)cc(-c2ccc(Cl)cc2)cc1-c1ccccc1.[O-][Cl+3]([O-])([O-])[O-]
[7]
  EC50: > 160 µM (inconclusive)
[8]
  EC50: 0.756 µM (active)

## NC(=O)c1ccc(NC(=O)COc2cccc3c2CCNC3=O)cc1
[3]
  IC50: > 79 µM (inactive)

## O=C(CCCCCCCCCCCCC1CCCC1)Nc1ccc(S(=O)(=O)c2ccc(NC(=O)CCCCCCCCCCCCC3CCCC3)cc2)cc1 [CHAULMOSULFONE]
[4]
  AC50: 31.6 µM (inconclusive)

## COc1ccc([N+](=O)[O-])cc1C(=O)Nc1ccc(Cc2ccncc2)cc1
[1]
  IC50: 11.5 µM (active)
[2]
  IC50: 10.9 µM (active)

## O=C(CNC(=O)c1[nH]cnc1C(=O)NCc1ccccc1)OCc1ccccc1
[3]
  IC50: 40.4 µM (inactive)

## CC(C)(C)c1ccc(CSc2ccc(S(=O)(=O)N3CCOCC3)cn2)cc1
[1]
  IC50: 0.683 µM (active)
[2]
  IC50: 1.03 µM (active)

## OC(COc1ccc2c(c1)OCO2)CN1CCCC1 (configuration not stated)
[7]
  EC50: 53.2 µM (active)

## N#Cc1ccc(C23CC4(C2)[C@H](CN(CC2CCCCC2)[C@@H]4c2ccccc2)C3c2ccc(C(F)(F)F)cc2)cc1 (some centres not stated)
[4]
  AC50: 15.8 µM (inconclusive)

## Cc1nc(N2CCOCC2)c2nc(-c3ccccc3)n(CC(C)(C)CN(C)C)c2n1
[4]
  AC50: 10 µM (inconclusive)

## COc1ccc2[nH]cc(CC(N)C(=O)O)c2c1 (configuration not stated)
[4]
  AC50: 31.6 µM (inconclusive)

## O=C(COC(=O)c1ccc(Cl)c([N+](=O)[O-])c1)NC1CCCC1
[1]
  IC50: 3.41 µM (active)
[2]
  IC50: 3.12 µM (active)

## CC(Nc1c[nH]c(=O)[nH]c1=O)c1ccccc1 (configuration not stated)
[5]
  EC50: 15.5 µM (active)
[6]
  AC50: 23.9 µM (active)

## O=C1CCCC/C1=N\Nc1ccc(OCc2ccccc2)cc1
[7]
  EC50: > 160 µM (inconclusive)
[8]
  EC50: > 38 µM (not active)

## COc1ccc(C2NC(c3ccc(OC)cc3OC)C(C)C(=O)C2C)c(OC)c1 (configuration not stated)
[9]
  IC50: 116 µM (active)
[5]
  EC50: > 380 µM (inactive)
[6]
  AC50: > 380 µM (inactive)

## N#C/C(=C\c1ccc(-c2cccc([N+](=O)[O-])c2)o1)C(=O)NCCN1CCOCC1
[3]
  IC50: > 79 µM (inactive)

## O=C(COC(=O)Cc1nnc(O)c2ccccc12)NNC(=O)c1ccc(Br)cc1
[3]
  IC50: > 79 µM (inactive)

## N#C/C(=C\c1c(F)cccc1Cl)c1nn(-c2ccccc2)c(-n2cccc2)c1C#N
[10]
  AC50: 0.966 µM (active)
[5]
  EC50: 1.34 µM (inconclusive)
[11]
  CC50: > 50 µM (active)
[6]
  AC50: 28.9 µM (active)

## CC1CC(C)CN(C(=O)COC(=O)c2cc([N+](=O)[O-])ccc2N2CCOCC2)C1 (configuration not stated)
[1]
  IC50: 1.22 µM (active)
[2]
  IC50: 1.3 µM (active)
